Test results taken from article PMC6214026, “PSMA-Oriented Target Delivery of Novel Anticancer Prodrugs: Design, Synthesis, and Biological Evaluations of Oligopeptide-Camptothecin Conjugates” (International Journal of Molecular Sciences, 2018).
Like-named read-outs stand apart in the source and are kept apart here.

Columns and labels:
[1] = tested on: DU145 cells (non-PSMA-expressing); assay: cells; assay type: cell-based, human; settings: read-out: IC50 DU145
Experimental: (§1) The cytotoxicities of PSMA-activated prodrug CPT-HT-J-ZLn and PSMA hydrolysate CPT-D-GLn were evaluated by MTT assays on PSMA-expressing (PSMA^+) cancer cell LNCaP-FGC, non-PSMA-expressing (PSMA^−) cancer cells HepG2, MCF-7, Hela, DU145, and PC-3, and normal cells MDCK, LO2, respectively, using CPT as a positive control.
(§2) The human prostate cancer cell line (LNCaP-FGC), human prostate cancer cell line (PC-3), human prostate cancer cell line (DU-145), human breast cancer cell line (MCF-7), human hepatocellular carcinoma cell line (HepG2), human cervical cancer cell line (Hela), were obtained from the Chinese Academy of Medical Sciences and Peking Union Medical College. The cultures of the cells were maintained as a monolayer in RPMI 1640 or DMEM supplemented with 10% (v/v) heat inactivated fetal bovine serum and 1% (v/v) enicillin/streptomycin (Corning, New York, NY, USA) and incubated at 37 °C in a humidified atmosphere with 5% CO2. The tested compounds were dissolved in DMSO (Sigma, St. Louis, MO, USA) and added at required concentrations to the cell culture.
(§3) The cytotoxicity of all the tested compounds was evaluated in vitro via the MTT method against PSMA-expressing LNCaP-FGC cells and non-PSMA-expressing cells HepG2, Hela, MCF-7, DU145, PC-3 cells using CPT as the positive control. Tumor cells growing in the logarithmic phase were seeded in 96-well plates at a density 3 × 10^3 cells/well and incubated overnight. The following day, cells were then treated with serial dilutions of the tested compounds for 72 h. At the end of this incubation, 20 µL of 5 mg/mL methylthiazol tetrazolium (MTT) was added to each well and incubation proceeded at 37 °C for another 4 h. After the supernatant medium was thrown away, 150 µL dimethylsulphoxide (DMSO) were added to each well and absorbance was measured at 490 nm using a plate reader (BIORAD 550 spectrophotometer, Bio-rad Life Science Development Ltd., Berkeley, CA, USA). Experiments were performed in triplicate and the values were the average of three (n = 3) independent experiments. The concentration of the compound that results in 50% growth inhibition corresponds to the IC50. Tumor cell growth inhibitory rate was calculated using Equation (1): % inhibition = (1 − Sample group OD/Control group OD) × 100%(1)

[2] = tested on: HepG2 cells (non-PSMA-expressing); assay: cells; assay type: cell-based, human; settings: read-out: IC50 HepG2
Experimental: as §1, §2, §3

[3] = tested on: MCF-7 cells (non-PSMA-expressing); assay: cells; assay type: cell-based, human; settings: read-out: IC50 MCF-7
Experimental: as §1, §2, §3

[4] = tested on: PC-3 cells (non-PSMA-expressing); assay: cells; assay type: cell-based, human; settings: read-out: IC50 PC-3
Experimental: as §1, §2, §3

[5] = tested on: LNCaP-FGC cells (PSMA-expressing); assay: MTT cytotoxicity assay, LNCaP-FGC; assay type: cell-based, human; settings: 72 h, read-out: IC50 LNCaP-FGC
Experimental: as §1, §2, §3

[6] = tested on: HeLa cells (non-PSMA-expressing); assay: MTT cytotoxicity assay, HeLa; assay type: cell-based, human; settings: 72 h, mean ± SD, n = 3
Experimental: as §1
The tested compounds were dissolved in DMSO (Sigma, St. Louis, MO, USA) and added at required concentrations to the cell culture.
as §3, with “experiments.” for “experiments. The concentration of the compound that results in 50% growth inhibition corresponds to the IC50. Tumor cell growth inhibitory rate was calculated using Equation (1): % inhibition = (1 − Sample group OD/Control group OD) × 100%(1)”

LO2 cells = assay: cells; assay type: cell-based; settings: read-out: IC50 LO2
Experimental: as §1, §3

MDCK cells = assay: cells; assay type: cell-based; settings: 72 h, read-out: IC50 MDCK
Experimental: as §1, §3

Structure (SMILES) | IC50 ([1]; Homo sapiens, DU-145, 72 h) | IC50 ([2]; Homo sapiens, HepG2, 72 h) | IC50 ([3]; Homo sapiens, MCF7, 72 h) | IC50 ([4]; Homo sapiens, PC-3, 72 h) | IC50 ([5]; Homo sapiens) | IC50 ([6]; Homo sapiens, HeLa) | IC50 (LO2 cells; Homo sapiens, L02, 72 h) | IC50 (MDCK cells; Canis lupus familiaris, MDCK) | IC50 ([1]; MTT, 72 h, mean ± SD, n = 3) | IC50 ([2]; MTT, 72 h, mean ± SD, n = 3) | IC50 ([3]; MTT, 72 h, mean ± SD, n = 3) | IC50 ([4]; MTT, 72 h, mean ± SD, n = 3) | IC50 ([5]; MTT, mean ± SD, n = 3, PSMA+) | IC50 [6] | IC50 (LO2 cells; MTT, 72 h, normal cells) | IC50 (MDCK cells; MTT, normal cells)
CC[C@@]1(OC(=O)CN)C(=O)OCc2c1cc1n(c2=O)Cc2cc3ccccc3nc2-1 [CPT-B-L2, (S)-4-ethyl-3,14-dioxo-3,4,12,14-tetrahydro-1H-pyrano[3′,4′:6,7]indolizino[1,2-b]quinolin-4-yl glycinate] | 0.12 ± 0.09 µM | > 40 µM | 4.11 ± 3.09 µM | 5.19 ± 0.3 µM | 0.38 ± 0.1 µM | 10 ± 2 µM | 5.61 ± 1.4 µM | 5.16 ± 1.2 µM | – | – | – | – | – | – | – | –
CC[C@@]1(OC(=O)CCCN)C(=O)OCc2c1cc1n(c2=O)Cc2cc3ccccc3nc2-1 [CPT-B-L4, (S)-4-ethyl-3,14-dioxo-3,4,12,14-tetrahydro-1H-pyrano[3′,4′:6,7]indolizino[1,2-b]quinolin-4-yl 4-aminobutanoate] | 0.25 ± 0.13 µM | > 40 µM | 1.58 ± 2.42 µM | 1 ± 0.1 µM | 0.37 ± 0.02 µM | 4.37 ± 0.5 µM | 1.36 ± 0.3 µM | 3.2 ± 2 µM | – | – | – | – | – | – | – | –
CC[C@@]1(OC(=O)CCCCCN)C(=O)OCc2c1cc1n(c2=O)Cc2cc3ccccc3nc2-1 [CPT-B-L6, (S)-4-ethyl-3,14-dioxo-3,4,12,14-tetrahydro-1H-pyrano[3′,4′:6,7]indolizino[1,2-b]quinolin-4-yl 6-aminohexanoate] | 3.55 ± 0.95 µM | > 40 µM | 6.76 ± 1.47 µM | 15.9 ± 1.73 µM | 1.89 ± 0.2 µM | 15 ± 0.8 µM | 2.71 ± 0.38 µM | 5.44 ± 3 µM | – | – | – | – | – | – | – | –
CC[C@@]1(OC(=O)CCCCCCCCCCCN)C(=O)OCc2c1cc1n(c2=O)Cc2cc3ccccc3nc2-1 [CPT-B-L12, (S)-4-ethyl-3,14-dioxo-3,4,12,14-tetrahydro-1H-pyrano[3′,4′:6,7]indolizino[1,2-b]quinolin-4-yl 12-aminododecanoate] | 7.32 ± 1.43 µM | > 40 µM | 5.76 ± 0.86 µM | 6.45 ± 0.42 µM | 1.93 ± 1.03 µM | > 40 µM | 2.63 ± 0.84 µM | 5.2 ± 0.88 µM | – | – | – | – | – | – | – | –
CC[C@@]1(OC(=O)CNC(=O)[C@@H](N)CCC(=O)O)C(=O)OCc2c1cc1n(c2=O)Cc2cc3ccccc3nc2-1 [CPT-D-GL2, (S)-4-amino-5-((2-(((S)-4-ethyl-3,14-dioxo-3,4,12,14-tetrahydro-1H-pyrano[3′,4′:6,7]indolizino[1,2-b]quinolin-4-yl)oxy)-2-oxoethyl)amino)-5-oxopentanoic acid] | 0.4 ± 0.05 µM | > 40 µM | 0.3 ± 0.05 µM | 1.5 ± 0.2 µM | 3.68 ± 0.36 µM | > 40 µM | 0.16 ± 0.07 µM | 0.26 ± 0.14 µM | – | – | – | – | – | – | – | –
CC[C@@]1(OC(=O)CCCNC(=O)[C@@H](N)CCC(=O)O)C(=O)OCc2c1cc1n(c2=O)Cc2cc3ccccc3nc2-1 [CPT-D-GL4, (S)-4-amino-5-((4-(((S)-4-ethyl-3,14-dioxo-3,4,12,14-tetrahydro-1H-pyrano[3′,4′:6,7]indolizino[1,2-b]quinolin-4-yl)oxy)-4-oxobutyl)amino)-5-oxopentanoic acid] | 4.89 ± 0.01 µM | > 40 µM | 4.03 ± 0.3 µM | 14.9 ± 1 µM | 3.68 ± 0.5 µM | > 40 µM | 0.4 ± 0.15 µM | 0.23 ± 0.1 µM | – | – | – | – | – | – | – | –
CC[C@@]1(OC(=O)CCCCCNC(=O)[C@@H](N)CCC(=O)O)C(=O)OCc2c1cc1n(c2=O)Cc2cc3ccccc3nc2-1 [CPT-D-GL6, (S)-4-amino-5-((6-(((S)-4-ethyl-3,14-dioxo-3,4,12,14-tetrahydro-1H-pyrano[3′,4′:6,7]indolizino[1,2-b]quinolin-4-yl)oxy)-6-oxohexyl)amino)-5-oxopentanoic acid] | 3.97 ± 0.16 µM | > 40 µM | 17.2 ± 3 µM | 12.5 ± 0.8 µM | 8.17 ± 1 µM | > 40 µM | 1.5 ± 0.6 µM | 4 ± 0.42 µM | – | – | – | – | – | – | – | –
CC[C@@]1(OC(=O)CCCCCCCCCCCNC(=O)[C@@H](N)CCC(=O)O)C(=O)OCc2c1cc1n(c2=O)Cc2cc3ccccc3nc2-1 [CPT-D-GL12, (S)-4-amino-5-((12-(((S)-4-ethyl-3,14-dioxo-3,4,12,14-tetrahydro-1H-pyrano[3′,4′:6,7]indolizino[1,2-b]quinolin-4-yl)oxy)-12-oxododecyl)amino)-5-oxopentanoic acid] | 7.38 ± 0.2 µM | > 40 µM | > 40 µM | > 40 µM | 2.1 ± 0.68 µM | 25.5 ± 1 µM | 3.8 ± 0.8 µM | 5.1 ± 1.1 µM | – | – | – | – | – | – | – | –
CC[C@@]1(OC(=O)CNC(=O)[C@H](CCC(=O)N[C@@H](CCC(=O)N[C@@H](CCC(=O)N[C@@H](CC(=O)OC(C)(C)C)C(=O)N[C@@H](CCC(=O)OC(C)(C)C)C(=O)OC(C)(C)C)C(=O)OC(C)(C)C)C(=O)OC(C)(C)C)NC(=O)OC(C)(C)C)C(=O)OCc2c1cc1n(c2=O)Cc2cc3ccccc3nc2-1 [CPT-HT-J-L2, 14,22,24,9-tetra-tert-butyl 1-((S)-4-ethyl-3,14-dioxo-3,4,12,14-tetrahydro-1H-pyrano[3′,4′:6,7]indolizino[1,2-b]quinolin-4-yl) (4S,9S,14S,19S,22S)-19-(2-(tert-butoxy)-2-oxoethyl)-4-((tert-butoxycarbonyl)amino)-3,7,12,17,20-pentaoxo-2,8,13,18,21-pentaazatetracosane-1,9,14,22,24-pentacarboxylate] | – | – | – | – | – | – | – | – | > 40 µM | > 40 µM | > 40 µM | > 40 µM | > 40 µM | > 40 µM | > 40 µM | > 40 µM
CC[C@@]1(OC(=O)CCCNC(=O)[C@H](CCC(=O)N[C@@H](CCC(=O)N[C@@H](CCC(=O)N[C@@H](CC(=O)OC(C)(C)C)C(=O)N[C@@H](CCC(=O)OC(C)(C)C)C(=O)OC(C)(C)C)C(=O)OC(C)(C)C)C(=O)OC(C)(C)C)NC(=O)OC(C)(C)C)C(=O)OCc2c1cc1n(c2=O)Cc2cc3ccccc3nc2-1 [CPT-HT-J-L4, 1,11,16,3-tetra-tert-butyl 26-((S)-4-ethyl-3,14-dioxo-3,4,12,14-tetrahydro-1H-pyrano[3′,4′:6,7]indolizino[1,2-b]quinolin-4-yl) (3S,6S,11S,16S,21S)-6-(2-(tert-butoxy)-2-oxoethyl)-21-((tert-butoxycarbonyl)amino)-5,8,13,18,22-pentaoxo-4,7,12,17,23-pentaazahexacosane-1,3,11,16,26-pentacarboxylate] | – | – | – | – | – | – | – | – | > 40 µM | > 40 µM | > 40 µM | > 40 µM | > 40 µM | > 40 µM | > 40 µM | > 40 µM
